Values of other authors in publication PMC10401071 (Cancer Discovery, 2023).

Test system: WDLPS and DDLPS
Conditions: patients with WDLPS and DDLPS; cited from earlier work

COc1cccc2c1C(=O)c1c(O)c3c(c(O)c1C2=O)C[C@@](O)(C(=O)CO)C[C@@H]3O[C@H]1C[C@H](N)[C@H](O)[C@H](C)O1 [doxorubicin]
overall survival: ~9 months
